This note sets out measurements from patent US9233983B2, “Substituted hetero-bicyclic compounds, compositions and medicinal applications thereof” (ADVINUS THERAPEUTICS LIMITED, priority 2012, dated 2016).

Experiment [1] has as its target human Bruton's Tyrosine Kinase (Btk) (Homo sapiens (Human), UniProt Q06187). Description: Recombinant Human Bruton's Tyrosine Kinase (Btk) Inhibition Assay (HTRF KinEASE-TK). Format: biochemical. Particulars: 20 ng/ml rhBtk, 77 μM ATP (KM), 1 μM TK-Biotin substrate, 90 min; read-out: hBTK IC50. In general terms: Time-resolved FRET reads energy transfer from a long-lived donor to a nearby acceptor.

For another experiment, the system named is mouse splenocytes. Nature of the experiment: Inhibition of B Cell Activation as Measured by CD69 Expression in Mouse Splenocytes. The following applies: Splenocyte; C57/BL6 splenocytes, 3 ug/mL goat anti-mouse IgM, 18-20 hrs, CD69+ve cells within CD19; read-out: Mouse spleenocyte IC50. Format: cell-based. Put shortly:
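Total mouse splenocytes pre-incubated with compounds (half-log dilutions; DMSO 200× stocks from 2 mM) 30 min at 37 °C, then stimulated with 3 ug/mL anti-mouse IgM for 18-20 hrs. CD69+ cells within CD19+ B cells quantified by flow cytometry; IC50 from variable-slope sigmoid dose-response fit.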

pIC50: −log10 of the molar value.

Sequence of human Bruton's Tyrosine Kinase (Btk) (Q06187 whole entry): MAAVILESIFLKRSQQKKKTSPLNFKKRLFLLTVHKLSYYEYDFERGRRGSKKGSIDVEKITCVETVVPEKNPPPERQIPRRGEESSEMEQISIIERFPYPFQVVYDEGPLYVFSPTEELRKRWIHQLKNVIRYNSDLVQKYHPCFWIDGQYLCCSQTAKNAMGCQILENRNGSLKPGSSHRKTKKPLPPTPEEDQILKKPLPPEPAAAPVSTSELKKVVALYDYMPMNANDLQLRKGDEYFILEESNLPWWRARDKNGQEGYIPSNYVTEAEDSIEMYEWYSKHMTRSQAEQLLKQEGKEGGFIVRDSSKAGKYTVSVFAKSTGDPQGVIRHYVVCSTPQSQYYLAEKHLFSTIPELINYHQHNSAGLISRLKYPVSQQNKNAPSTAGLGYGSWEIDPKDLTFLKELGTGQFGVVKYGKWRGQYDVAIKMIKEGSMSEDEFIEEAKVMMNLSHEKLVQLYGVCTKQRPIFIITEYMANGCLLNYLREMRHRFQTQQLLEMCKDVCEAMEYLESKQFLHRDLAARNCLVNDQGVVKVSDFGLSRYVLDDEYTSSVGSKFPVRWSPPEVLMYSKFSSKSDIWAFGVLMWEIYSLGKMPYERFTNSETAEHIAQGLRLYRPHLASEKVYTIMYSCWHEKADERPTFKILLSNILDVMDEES

Broadly, the pIC50 is the IC50 on a negative log10 scale, so that one unit is a factor of ten. In the case of `CC(C)(O)CN1CC=C(c2cc3c(-c4cccc(N5CCOc6cc(C7CC7)cc(F)c6C5=O)c4CO)ccnc3[nH]2)CC1` [Example P-23, 8-cyclopropyl-6-fluoro-4-[2-(hydroxymethyl)-3-[2-[1-(2-hydroxy-2-methyl-propyl)-3,6-dihydro-2H-pyridin-4-yl]-1H-pyrrolo[2,3-b]pyridin-4-yl]phenyl]-2,3-dihydro-1,4-benzoxazepin-5-one], the pIC50 in experiment [1] is 8.85; with mouse splenocytes, 7.12.
In the same order, the values of `CC(C)N1CC(n2cc(-c3cc4c(-c5cccc(N6CCOc7cc(C8CC8)ccc7C6=O)c5CO)ccnc4[nH]3)cn2)C1` [Example D-8, 8-cyclopropyl-4-[2-(hydroxymethyl)-3-[2-[1-(1-isopropylazetidin-3-yl)pyrazol-4-yl]-1H-pyrrolo[2,3-b]pyridin-4-yl]phenyl]-2,3-dihydro-1,4-benzoxazepin-5-one] are 8.19 and 7.01.
In the same order, the values of `O=C1c2ccc(C3CC3)cc2OCCN1c1cccc(-c2ccnc3[nH]c(-c4ccc(CN5CCN(CC(F)(F)F)CC5)cn4)cc23)c1CO` [Example I-9, 8-cyclopropyl-4-[2-(hydroxymethyl)-3-[2-[5-[[4-(2,2,2-trifluoroethyl)piperazin-1-yl]methyl]-2-pyridyl]-1H-pyrrolo[2,3-b]pyridin-4-yl]phenyl]-2,3-dihydro-1,4-benzoxazepin-5-one] are 8.10 and 7.33.
For `CN1CCN(c2ccc(-c3cc4c(-c5cccc(N6CCOc7cc(C8CC8)ccc7C6=O)c5CO)ccnc4[nH]3)cn2)CC1` [Example D-11, 8-cyclopropyl-4-[2-(hydroxymethyl)-3-[2-[6-(4-methylpiperazin-1-yl)-3-pyridyl]-1H-pyrrolo[2,3-b]pyridin-4-yl]phenyl]-2,3-dihydro-1,4-benzoxazepin-5-one] the same measures were 7.85 and 7.10.
Turning to `Cc1c(-c2ncnc3[nH]c(-c4ccc(CN5CCNCC5)cc4)cc23)cccc1N1CCOc2cc(C3CC3)ccc2C1=O` [Example A-1, 8-cyclopropyl-4-[2-methyl-3-[6-[4-(piperazin-1-ylmethyl)phenyl]-7H-pyrrolo[2,3-d]pyrimidin-4-yl]phenyl]-2,3-dihydro-1,4-benzoxazepin-5-one], the pIC50 in experiment [1] is 8.15; with mouse splenocytes, 7.00.
`CC(=O)N1CC=C(c2cc3c(-c4cccc(N5CCOc6cc(C7CC7)cc(F)c6C5=O)c4CO)ccnc3[nH]2)CC1` [Example P-24, 4-[3-[2-(1-acetyl-3,6-dihydro-2H-pyridin-4-yl)-1H-pyrrolo[2,3-b]pyridin-4-yl]-2-(hydroxymethyl)phenyl]-8-cyclopropyl-6-fluoro-2,3-dihydro-1,4-benzoxazepin-5-one]: the figures for the pIC50 (in experiment [1]; in the experiment on mouse splenocytes) were 8.44 and 7.96, respectively.
In the same order, the values of `O=C1c2ccc(C3CC3)cc2OCCN1c1cccc(-c2ccnc3[nH]c(-c4ccc(CN5CCS(=O)(=O)CC5)cn4)cc23)c1CO` [Example I-8, 8-cyclopropyl-4-[3-[2-[5-[(1,1-dioxo-1,4-thiazinan-4-yl)methyl]-2-pyridyl]-1H-pyrrolo[2,3-b]pyridin-4-yl]-2-(hydroxymethyl)phenyl]-2,3-dihydro-1,4-benzoxazepin-5-one] are 8.05 and 7.07.
For `CCN1CCN(Cc2ccc(-c3cc4c(-c5cccc(N6CCOc7cc(C8CC8)ccc7C6=O)c5CO)ccnc4[nH]3)cc2)CC1` [Example B-16, 8-cyclopropyl-4-[3-[2-[4-[(4-ethylpiperazin-1-yl)methyl]phenyl]-1H-pyrrolo[2,3-b]pyridin-4-yl]-2-(hydroxymethyl)phenyl]-2,3-dihydro-1,4-benzoxazepin-5-one], the results for the pIC50 (in experiment [1]; in the experiment on mouse splenocytes) were 8.40 and 7.77, respectively.
In the same order, the values of `Cc1c(-c2ncnc3[nH]c(-c4ccc(CN5CCN(C)CC5)cc4)cc23)cccc1N1CCOc2cc(C3CC3)ccc2C1=O` [Example B-2] are 7.51 and 6.70.
